Columns and labels:
Assay type in all cases: in vivo
[1] = test system: ducksalad (Heteranthera limosa); assay: Test B flooded paddy test; settings: Heteranthera limosa, Flood, 250 g ai/ha; scale of 0 to 100 where 0 is no effect and 100 is complete control; read-out: Ducksalad plant response rating
Procedure, shortened: (§1)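 Response scored visually against untreated controls, 0 = no effect and 100 = complete control, 13–15 d after treatment in the greenhouse. Compounds added to paddy water held 3 cm above soil surface. Treatment given at 2-leaf stage.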

[2] = test system: sedge, umbrella (small-flower umbrella sedge, Cyperus difformis); assay: Test B flooded paddy test; settings: Cyperus difformis, Flood, 250 g ai/ha; scale of 0 to 100 where 0 is no effect and 100 is complete control; read-out: Sedge, Umbrella plant response rating
Procedure, shortened: as §1

[3] = test system: barnyardgrass (Echinochloa crus-galli); assay: Test B flooded paddy test; settings: Echinochloa crus-galli, Flood, 250 g ai/ha; scale of 0 to 100 where 0 is no effect and 100 is complete control; read-out: Barnyardgrass plant response rating
Procedure, shortened: as §1

rice (Oryra sativa) = assay: Test B flooded paddy test; settings: Oryza sativa, Flood, 250 g ai/ha; scale of 0 to 100 where 0 is no effect and 100 is complete control; read-out: Rice plant response rating
Procedure, shortened: as §1

[4] = test system: pigweed (Amaranthus retroflexus); assay: Test A preemergence; settings: Amaranthus retroflexus, pre-emergence, 240 h
[5] = test system: ragweed (common ragweed, Ambrosia elatior); assay: Test A preemergence; settings: Ambrosia artemisiifolia, pre-emergence, 240 h
Procedure, shortened: (§2)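 Each rating is a visual injury score from 0 to 100 given about 10 d after treatment, judged against untreated controls kept alongside in the greenhouse. In loam soil–sand blend, seeds got a preemergence directed soil spray, while postemergence plants were 2 to 10 cm tall at spraying.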

Kochia (Kochia scoparia) [6] = assay: Test A preemergence; settings: Bassia scoparia, pre-emergence, 240 h
Procedure, shortened: as §2

[7] = test system: giant foxtail (Setaria faberii); assay: Test A preemergence; settings: Setaria faberi, pre-emergence, 240 h
Procedure, shortened: as §2

[8] = test system: barnyardgrass (Echinochloa crus-galli); assay: Test A preemergence; settings: Echinochloa crus-galli, pre-emergence, 240 h
Procedure, shortened: as §2

[9] = test system: ryegrass, Italian (Italian ryegrass, Lolium multiflorum); assay: Test A preemergence; settings: Lolium multiflorum, pre-emergence, 240 h
Procedure, shortened: as §2

[10] = test system: pigweed (Amaranthus retroflexus); assay: Test A postemergence; settings: Amaranthus retroflexus, post-emergence, 240 h, 125 g ai/ha, Postemergence; visual injury after approximately 10 d; 0 to 100 scale where 0 is no effect and 100 is complete control; read-out: Plant response rating, Pigweed
Procedure, shortened: as §2

[11] = test system: blackgrass (Alopecurus myosuroides); assay: Test A postemergence; settings: Alopecurus myosuroides, post-emergence, 240 h, 125 g ai/ha, Postemergence; visual injury after approximately 10 d; 0 to 100 scale where 0 is no effect and 100 is complete control; read-out: Plant response rating, Blackgrass
Procedure, shortened: as §2

corn (Zea mays) = assay: Test A postemergence; settings: Zea mays, post-emergence, 240 h, 125 g ai/ha, Postemergence; visual injury after approximately 10 d; 0 to 100 scale where 0 is no effect and 100 is complete control
Procedure, shortened: as §2

[12] = test system: Galium (catchweed bedstraw, Galium aparine); assay: Test A postemergence; settings: Galium, post-emergence, 240 h, 125 g ai/ha, Postemergence; visual injury after approximately 10 d; 0 to 100 scale where 0 is no effect and 100 is complete control; read-out: Plant response rating, Galium
Procedure, shortened: as §2

[13] = test system: wheat (Triticum aestivum); assay: Test A postemergence; settings: Triticum aestivum, post-emergence, 240 h, 125 g ai/ha, Postemergence; visual injury after approximately 10 d; 0 to 100 scale where 0 is no effect and 100 is complete control; read-out: Plant response rating, Wheat
Procedure, shortened: as §2

[14] = test system: ragweed (common ragweed, Ambrosia elatior); assay: Test A postemergence; settings: Ambrosia artemisiifolia, post-emergence, 240 h, 125 g ai/ha, Postemergence; visual injury after approximately 10 d; 0 to 100 scale where 0 is no effect and 100 is complete control; read-out: Plant response rating, Ragweed
Procedure, shortened: as §2

Kochia (Kochia scoparia) [15] = assay: Test A postemergence; settings: Bassia scoparia, post-emergence, 240 h, 125 g ai/ha, Postemergence; visual injury after approximately 10 d; 0 to 100 scale where 0 is no effect and 100 is complete control; read-out: Plant response rating, Kochia
Procedure, shortened: as §2

[16] = test system: giant foxtail (Setaria faberii); assay: Test A postemergence; settings: Setaria faberi, post-emergence, 240 h, 125 g ai/ha, Postemergence; visual injury after approximately 10 d; 0 to 100 scale where 0 is no effect and 100 is complete control; read-out: Plant response rating, Foxtail, Giant
Procedure, shortened: as §2

[17] = test system: barnyardgrass (Echinochloa crus-galli); assay: Test A postemergence; settings: Echinochloa crus-galli, post-emergence, 240 h, 125 g ai/ha, Postemergence; visual injury after approximately 10 d; 0 to 100 scale where 0 is no effect and 100 is complete control; read-out: Plant response rating, Barnyardgrass
Procedure, shortened: as §2

[18] = test system: ryegrass, Italian (Italian ryegrass, Lolium multiflorum); assay: Test A postemergence; settings: Lolium multiflorum, post-emergence, 240 h, 125 g ai/ha, Postemergence; visual injury after approximately 10 d; 0 to 100 scale where 0 is no effect and 100 is complete control; read-out: Plant response rating, Ryegrass, Italian
Procedure, shortened: as §2

**Q.** Which pest or weed control at 250 g/ha [1] does the source give for `CCOc1cccc([C@H]2CN(C)C(=O)[C@@H]2C(=O)Nc2ccccc2F)c1` [Compound 955] here?
**A.** Its pest or weed control at 250 g/ha is 90%.

**Q.** What about the pest or weed control at 250 g/ha [2] of the same compound?
**A.** Its pest or weed control at 250 g/ha is 0%.

**Q.** What about the pest or weed control at 250 g/ha [3] of the same compound?
**A.** The pest or weed control at 250 g/ha was 70%.

**Q.** And the pest or weed control at 250 g/ha (rice (Oryra sativa))?
**A.** The pest or weed control at 250 g/ha was 0%.

**Q.** And the pest or weed control at 125 g/ha ([4]; 125 g ai/ha, Preemergence, visual injury rating after approximately 10 d, read-out: Pigweed plant response rating (0 to 100 scale, 0 is no effect, 100 is complete control))?
**A.** The pest or weed control at 125 g/ha was 0%.

**Q.** What about the pest or weed control at 500 g/ha ([4]; 500 g ai/ha, preemergence, visual injury rating about 10 d after treatment, 0 to 100 scale (0 no effect, 100 complete control), read-out: Pigweed plant response rating) of the same compound?
**A.** Its pest or weed control at 500 g/ha is 0%.

**Q.** What about the pest or weed control at 125 g/ha ([5]; 125 g ai/ha, Preemergence, visual injury rating after approximately 10 d, read-out: Ragweed plant response rating (0 to 100 scale, 0 is no effect, 100 is complete control)) of the same compound?
**A.** The pest or weed control at 125 g/ha was 0%.

**Q.** What about the pest or weed control at 500 g/ha ([5]; 500 g ai/ha, preemergence, visual injury rating about 10 d after treatment, 0 to 100 scale (0 no effect, 100 complete control), read-out: Ragweed plant response rating) of the same compound?
**A.** Its pest or weed control at 500 g/ha is 30%.

**Q.** What about the pest or weed control at 125 g/ha (Kochia (Kochia scoparia) [6]; 125 g ai/ha, Preemergence, visual injury rating after approximately 10 d, read-out: Kochia plant response rating (0 to 100 scale, 0 is no effect, 100 is complete control)) of the same compound?
**A.** Its pest or weed control at 125 g/ha is 30%.

**Q.** And the pest or weed control at 500 g/ha (Kochia (Kochia scoparia) [6]; 500 g ai/ha, preemergence, visual injury rating about 10 d after treatment, 0 to 100 scale (0 no effect, 100 complete control), read-out: Kochia plant response rating)?
**A.** Its pest or weed control at 500 g/ha is 70%.

**Q.** What about the pest or weed control at 125 g/ha ([7]; 125 g ai/ha, Preemergence, visual injury rating after approximately 10 d, read-out: Foxtail, Giant plant response rating (0 to 100 scale, 0 is no effect, 100 is complete control)) of the same compound?
**A.** The pest or weed control at 125 g/ha was 100%.

**Q.** And the pest or weed control at 500 g/ha ([7]; 500 g ai/ha, preemergence, visual injury rating about 10 d after treatment, 0 to 100 scale (0 no effect, 100 complete control), read-out: Foxtail, Giant plant response rating)?
**A.** Its pest or weed control at 500 g/ha is 100%.

**Q.** What about the pest or weed control at 125 g/ha ([8]; 125 g ai/ha, Preemergence, visual injury rating after approximately 10 d, read-out: Barnyardgrass plant response rating (0 to 100 scale, 0 is no effect, 100 is complete control)) of the same compound?
**A.** Its pest or weed control at 125 g/ha is 100%.

**Q.** What about the pest or weed control at 500 g/ha ([8]; 500 g ai/ha, preemergence, visual injury rating about 10 d after treatment, 0 to 100 scale (0 no effect, 100 complete control), read-out: Barnyardgrass plant response rating) of the same compound?
**A.** Its pest or weed control at 500 g/ha is 100%.

**Q.** And the pest or weed control at 125 g/ha ([9]; 125 g ai/ha, Preemergence, visual injury rating after approximately 10 d, read-out: Ryegrass, Italian plant response rating (0 to 100 scale, 0 is no effect, 100 is complete control))?
**A.** Its pest or weed control at 125 g/ha is 70%.

**Q.** What about the pest or weed control at 500 g/ha ([9]; 500 g ai/ha, preemergence, visual injury rating about 10 d after treatment, 0 to 100 scale (0 no effect, 100 complete control), read-out: Ryegrass, Italian plant response rating) of the same compound?
**A.** The pest or weed control at 500 g/ha was 60%.

**Q.** What about the pest or weed control at 125 g/ha [10] of the same compound?
**A.** Its pest or weed control at 125 g/ha is 0%.

**Q.** What about the pest or weed control at 125 g/ha [11] of the same compound?
**A.** Its pest or weed control at 125 g/ha is 0%.

**Q.** What about the Corn plant response rating (crop injury, 0 = no effect, 100 = complete kill) at 125 g/ha (corn (Zea mays)) of the same compound?
**A.** The Corn plant response rating (crop injury, 0 = no effect, 100 = complete kill) at 125 g/ha was 0%.

**Q.** And the pest or weed control at 125 g/ha [12]?
**A.** The pest or weed control at 125 g/ha was 20%.

**Q.** And the plant injury at 125 g/ha [13]?
**A.** The plant injury at 125 g/ha was 0%.

**Q.** What about the pest or weed control at 125 g/ha [14] of the same compound?
**A.** Its pest or weed control at 125 g/ha is 0%.

**Q.** What about the pest or weed control at 125 g/ha (Kochia (Kochia scoparia) [15]) of the same compound?
**A.** Its pest or weed control at 125 g/ha is 20%.

**Q.** What about the pest or weed control at 125 g/ha [16] of the same compound?
**A.** Its pest or weed control at 125 g/ha is 80%.

**Q.** What about the pest or weed control at 125 g/ha [17] of the same compound?
**A.** The pest or weed control at 125 g/ha was 90%.

**Q.** What about the pest or weed control at 125 g/ha [18] of the same compound?
**A.** The pest or weed control at 125 g/ha was 30%.

— patent US12077503B2, “Substituted cyclic amides and their use as herbicides” (FMC CORPORATION, priority 2015, dated 2024)
